Source: patent US6391827B1, “Pyrrolic compounds having a high herbicidal activity and their agronomic use” (Isagro Ricerca S.r.l., priority 1999, dated 2002)

Experiments:
Format in all cases: in vivo
Set-up in all cases: key: 0=0-20% of damage; 1=21-40%; 2=41-60%; 3=61-80%; 4=81-95%; 5=death of the plant treated
Conditions in all cases: 150 g/hectare, evaluated 21 days after treatment, damage vs blank
[1] = system: Amarantus retraflexus (AR); assay: Herbicidal activity in post-emergence, Amarantus retraflexus
Description: (§1) The herbicidal activity of the compounds of the invention was evaluated with respect to both monocotyledon and dicotyledon weeds, in post- and pre-emergence treatment.
(§2) The evaluation tests were carried out according to the following operative procedures.
(§3) Vases (diameter over 10 cm, height 10 cm) containing sandy medium were prepared. One of the following weeds was planted in each of them: Abutilon theofrasti (AT), Amarantus retraflexus (AR), Chenopodium album (CA), Convolvulus sepium (CS), Portulaca oleracea (PO), Solanum nigrum (SN), Ipomea purpurea (IP).
(§4) Water was added to each vase in a suitable quantity for a good germination of the seeds. The vases were divided into two groups, each group containing at least 5 vases for each weed.
(§5) The first group was not treated with herbicide and was used as a comparison (blank).
(§6) The second group of vases was treated fifteen days after sowing (i.e. when the small weed plants, depending on the species, were 10-15 cm high) with a hydroacetone dispersion at 20% by volume of acetone of the product to be evaluated (herbicidal activity in post-emergence). All the vases were kept under observation in a conditioned environment under the following environmental conditions:
(§7) light intensity: 10000 lux
(§8) Every two days, the vases were uniformly watered to ensure a sufficient degree of humidity for a good development of the plants.
(§9) 21 days after treatment, the herbicidal activity was evaluated on the basis of the following scale of values referring to the percentage of damage measured on the treated plants with respect to those not treated (blank): […]

[2] = system: Solanum nigrum (SN); assay: Herbicidal activity in post-emergence, Solanum nigrum
Description: as §1, §2, §3, §4, §5, §6, §7, §8, §9

[3] = system: Abutilon theofrasti (AT); assay: Herbicidal activity in post-emergence, Abutilon theofrasti
Description: as §1, §2, §3, §4, §5, §6, §7, §8, §9

[4] = system: Convolvulus sepium (CS); assay: Herbicidal activity in post-emergence, Convolvulus sepium
Description: as §1, §2, §3, §4, §5, §6, §7, §8, §9

[5] = system: Chenopodium album (CA); assay: Herbicidal activity in post-emergence, Chenopodium album
Description: as §1, §2, §3, §4, §5, §6, §7, §8, §9

[6] = system: Portulaca oleracea (PO); assay: Herbicidal activity in post-emergence, Portulaca oleracea
Description: as §1, §2, §3, §4, §5, §6, §7, §8, §9

[7] = system: Ipomea purpurea (IP); assay: Herbicidal activity in post-emergence, Ipomea purpurea
Description: as §1, §2, §3, §4, §5, §6, §7, §8, §9

CCOC(=O)COc1cc(-c2c(Br)c(C(F)(F)F)n(C)c2Br)c(F)cc1Cl [Compound 4, ethyl 2-chloro-5-(2,4-dibromo-1-methyl-5-trifluoromethylpyrrol-3-yl)-4-fluorophenoxy acetate]
5: Herbicidal activity in post-emerqence, AR [1] | Herbicidal activity in post-emerqence, SN [2] | Herbicidal activity in post-emerqence, AT [3] | Herbicidal activity in post-emerqence, CS [4] | Herbicidal activity in post-emerqence, CA [5] | Herbicidal activity in post-emerqence, PO [6] | Herbicidal activity in post-emerqence, IP [7]

C#CCOc1cc(-c2c(Br)c(C(F)(F)F)n(C)c2Br)c(F)cc1Cl [Compound 5, 3-[4-chloro-2-fluoro-5-(2-propinyloxy)phenyl]-2,4-dibromo-1-methyl-5-trifluoromethylpyrrole]
5: Herbicidal activity in post-emerqence, AR [1] | Herbicidal activity in post-emerqence, SN [2] | Herbicidal activity in post-emerqence, AT [3] | Herbicidal activity in post-emerqence, CS [4] | Herbicidal activity in post-emerqence, CA [5] | Herbicidal activity in post-emerqence, PO [6] | Herbicidal activity in post-emerqence, IP [7]

C#CCOc1cc(-c2c(Cl)c(C(F)(F)F)n(C)c2Cl)c(F)cc1Cl [Compound 14, 3-[4-chloro-2-fluoro-5-(2-propinyloxy)phenyl]-2,4-dichloro-1-methyl-5-trifluoromethyl pyrrole]
5: Herbicidal activity in post-emerqence, AR [1] | Herbicidal activity in post-emerqence, SN [2] | Herbicidal activity in post-emerqence, AT [3] | Herbicidal activity in post-emerqence, CS [4] | Herbicidal activity in post-emerqence, CA [5] | Herbicidal activity in post-emerqence, PO [6] | Herbicidal activity in post-emerqence, IP [7]

CCOC(=O)COc1cc(-c2c(Cl)c(C(F)(F)F)n(C)c2Cl)c(F)cc1Cl [Compound 15, ethyl [2-chloro-5-(2,4-dichloro-1-methyl-5-trifluoro methylpyrrol-3-yl)-4-fluorophenoxy]acetate]
5: Herbicidal activity in post-emerqence, AR [1] | Herbicidal activity in post-emerqence, SN [2] | Herbicidal activity in post-emerqence, AT [3] | Herbicidal activity in post-emerqence, CS [4] | Herbicidal activity in post-emerqence, CA [5] | Herbicidal activity in post-emerqence, PO [6] | Herbicidal activity in post-emerqence, IP [7]

C#CCOc1cc(-c2c(Br)c(C(F)(F)F)n(C)c2Cl)c(F)cc1Cl [Compound 17, 4-bromo-3-[4-chloro-2-fluoro-5-(2-propinyloxy)phenyl]-2-chloro-1-methyl-5-trifluoromethyl pyrrole]
5: Herbicidal activity in post-emerqence, AR [1] | Herbicidal activity in post-emerqence, SN [2] | Herbicidal activity in post-emerqence, AT [3] | Herbicidal activity in post-emerqence, CS [4] | Herbicidal activity in post-emerqence, CA [5] | Herbicidal activity in post-emerqence, PO [6] | Herbicidal activity in post-emerqence, IP [7]

CCOC(=O)COc1cc(-c2c(Br)c(C(F)(F)F)n(C)c2Cl)c(F)cc1Cl [Compound 18, ethyl-5-(4-bromo-2-chloro-1-methyl-5-trifluoromethylpyrrol-3-yl)-2-chloro-4-fluorophenoxyacetate]
5: Herbicidal activity in post-emerqence, AR [1] | Herbicidal activity in post-emerqence, SN [2] | Herbicidal activity in post-emerqence, AT [3] | Herbicidal activity in post-emerqence, CS [4] | Herbicidal activity in post-emerqence, CA [5] | Herbicidal activity in post-emerqence, PO [6] | Herbicidal activity in post-emerqence, IP [7]
